Test results from patent US12605335B2, “Triptolide lignocerate, liposome thereof and preparation method therefor” (SHANGHAI WEI ER BIOPHARMACEUTICAL TECHNOLOGY CO., LTD., priority 2022, dated 2026).
Where two headings read alike, the source gives them in different places.

Tests used:
[1] = system: Panc 02 pancreatic cancer model; assay: In vivo antitumor effect, Panc 02 pancreatic cancer model (Example 55); parameters: species or system mouse; conditions: ICR mice, 4 doses
Experimental: Panc 02 pancreatic cancer cells were cultured in DMEM medium at 37° C. with 5% CO2. Cells were passaged every two days during logarithmic growth phase until reaching a concentration of 1×10^7 cells/mL. Under sterile conditions, Panc 02 cells were subcutaneously implanted into the right axilla of ICR mice to establish the pancreatic cancer model. Once the tumor volume grew to 100-300 mm^3, mice were randomly divided into 6 groups of 6 animals each. Groups included blank control group, TP (DMSO) solution group, Minnelide solution group, and TP-LA liposome dose groups. Drugs were administered via tail vein injection at a dose of 0.6 mg/kg (based on TP) every other day for a total of 4 doses. On the third day after the last administration, mice were euthanized. Body weights were recorded, tumors were excised and weighed, and tumor inhibition rates were calculated.
[formula] 3. Antitumor Effects

ear vein = assay: Vascular irritation evaluation, rabbit ear vein; type: in vivo; conditions: rabbits, ear vein 0.22 mg/kg (based on TP), daily for three days, histology 48 hours after last administration
Experimental: […] (weighing 1.5-2.0 kg) were randomly divided into 6 groups. Each group received intravenous injection via the right ear vein of either saline solution, TP-LA liposomes prepared according to Examples 35, 42, and 53, TP (DMSO) solution, or Minnelide solution, at a dose of 0.22 mg/kg (calculated based on TP), administered at a rate of 1 mL/min. Simultaneously, saline of equal volume was administered via the left ear vein as a control. This procedure was repeated daily for three consecutive days.
During each day of administration, the animals' behavior and pathological changes at the injection site were observed macroscopically. Euthanasia was performed 48 hours after the last administration. Tissue samples were collected approximately 2.0 cm towards the central end from the injection site on the ear vein, fixed in 10% paraformaldehyd solution, dehydrated using an ethanol gradient, embedded in paraffin, and sectioned into slices stained with hematoxylin and […]. All samples were examined using a BX43-DP21 light microscope (Olympus Corporation, Japan), and pathological changes were assessed.

advanced solid tumors = conditions: patients with advanced solid tumors, intravenous once a week; cited from earlier work
[2] = Log P determination by shake-flask; type: physicochemical
Experimental: The log P was determined by shake-flask. First, a certain amount of water and n-octanol are added into the funnel, shaken and separated to obtain water-saturated n-octanol solution and n-octanol saturated aqueous solution; quantify and accurately weigh triptolide and its derivatives in a volumetric bottle containing water-saturated n-octanol solution, and dissolve by ultrasound, drop water-saturated n-octanol solution, dilute and volume. Take 0.5 mL of this solution in a 5 mL volumetric flask, dilute with MeOH and volume. The concentration of triptolide and its derivatives was determined by the assay method; take the above solution to the Xilin bottle, add 10 times the amount of n-octanol saturated aqueous solution, and shake in a bath of 37° C. and 75 rpm for one day, so that triptolide and its derivatives reach equilibrium state in aqueous and organic phase. The n-octanol phase was transferred into a centrifuge tube, centrifuged at 3000 rpm for 10 min, precision measuring n-octanol phase in a volumetric flask, diluted 10 times with MeOH solution, and measured the content of triptolide and its derivatives in n-octanol phase. Drug concentration in the aqueous phase=total drug concentration-drug concentration in the n-octanol phase.
[formula] 3. The Content Determination Method of Triptolide and Its Derivatives in This Embodiment is Determined by High-Performance Liquid Chromatography (2020 Edition, Chinese Pharmacopoeia's Fourth Part Rule 0512), as Follows: • Chromatographic conditions: using chromatographic column: Agilent ZORBAX Eclipse Plus C18 column (4.6 mm×250 mm, 5 μm), mobile phase: 100% MeOH, column temperature: 30° C., flow rate: 1.0 mL/min, sample input: 20 μL, detection wavelength: 218 nm. • Preparation of control solution: accurately weighing triptolide and its derivatives 10 mg, placed in a 10 mL volumetric flask, dissolved with methanol and diluted to the scale line, shake well, as the control reserve solution. • Preparation of standard curve: Reserve solutions of different volumes of control were diluted to produce series solutions with mass concentrations of 5.00, 10.00, 25.00, 50.00, 100.00, 250.00, and 500.00 μg/mL, respectively. 20 μL of each sample was injected into the HPLC system and analyzed according to the “Chromatographic Conditions”. With the concentration C (μg/mL) as the abscissa and the peak area A as the ordinate, the linear regression is obtained. • Assay: accurately absorb 1 mL of each sample solution of triptolide and its derivatives to a 5 mL volumetric flask, dilute with methanol to the scale line, and vortex-mix evenly. 20 μL was injected into the HPLC chromatogram, recorded and calculated by the peak area according to the standard curve method. 4. Experimental Results

[3] = in vivo; triptolide released via in vivo conversion of the liposomes, or triptolide itself; cited from earlier work
[4] = Pharmacokinetic study in rats; conditions: male, Sprague-Dawley (SD), rat, in vivo, iv, 0.6 mg/kg
Experimental: Rat tail vein dose of equimolar TP 0.6 mg/kg, blood collection time point set at 6 min, 12 min, 18 min, 30 min, 48 min, 1 h, 1.5 h, 2 h, 2.5 h, 3 h, 5 h, 12 h, 24 h, 72 h, 5 SD rats from each group (♂).
Sample processing and analysis method: take plasma with 4 times the amount of methanol to precipitate protein, centrifugation at 12000 r/min for 10 min; remove the supernatant to remove methanol, extract the remaining residue with 400 μL methyl-t-butyl ether twice, centrifugation at 12000 r/min for 10 min. The organic extraction phase was collected, concentrated and dried, 100 μL of methanol was added for redissolution, and the supernatant was centrifuged into the LC-MS/MS system to calculate the plasma concentration by using DAS 2.0 software.

tumor = conditions: Huang 2020; cited from earlier work
[5] = system: Panc 02 pancreatic cancer model; assay: In vivo antitumor effect, Panc 02 pancreatic cancer model (Example 5); parameters: species or system mouse; conditions: ICR mice, tail vein 0.6 mg/kg (per TP) every two days, 4 doses
Experimental: Mouse pancreatic cancer Panc02 cells were cultured in DMEM medium at 37° C., 5% CO2 and passaged on average every two days. During the log growth phase, the cell concentration was adjusted to 1×10^7/mL, and Panc 02 cells were subcutaneously seeded in the right axilla of ICR mice under sterile conditions to establish a mouse pancreatic cancer model. When the mouse tumor volume was grown to 100-300 mm^3, the mice were randomly divided into 6 groups according to the tumor volume, with 6 mice in each group. The blank, TP (DMSO), TP-SA, TP-EA, TP-BA, and TP-LA were set. The mouse tail vein injection was 0.6 mg/kg (per TP), and the blank group was given 0.2 mL saline every two days for a total of 4 doses. The mice were killed on the third day of drug withdrawal, the mice were weighed, the tumor body was dissected and weighed, and the tumor suppression rate was calculated.
[formula] 3. Anti-Tumor Effect

[6] = CN106946975A; cited from earlier work
[7] = tail vein 0.6 mg/kg (based on TP) every other day
[8] = shake-flask, n-octanol/water, 37° C., read-out: log P

Molecule `CC(C)[C@]12O[C@H]1[C@@H]1O[C@]13[C@]1(O[C@H]1C[C@H]1C4=C(CC[C@@]13C)C(=O)OC4)[C@@H]2OCOP(=O)(O)O` [Minnelide] has a Body weight change [1, 7] of 1.09%, a Mean tumor weight [1, 7] of 0.222 ± 0.029 g and a Tumor inhibition rate [1, 7] of 68.19%. For the same molecule, the “tail vein irritation after administration” value ([1]; tail vein 0.6 mg/kg (based on TP)) was “varying degrees of tail swelling and ulceration” and the “vascular irritation, pathological changes of ear vein” value (ear vein) was “congestion and some instances of bleeding”.

For `CC(C)[C@]12O[C@H]1[C@@H]1O[C@]13[C@]1(O[C@H]1C[C@H]1C4=C(CC[C@@]13C)C(=O)OC4)[C@@H]2OC(=O)CCC(=O)[O-].[Na+]` [PG490-88Na], the “grade of most frequently reported adverse reactions (anemia, malaise, nausea, vomiting, diarrhea, constipation)” value (advanced solid tumors) is listed as 1-2 and the “interindividual variability in pharmacokinetic properties” value (advanced solid tumors) is listed as 2- to 3 fold.

With `CCCCCCCCCCCCCCCCCCCCCC(=O)O[C@@H]1[C@@]2(C(C)C)OC2[C@@H]2O[C@]23[C@]12O[C@H]2CC1C2=C(CC[C@@]13C)C(=O)OC2` (stereo partly shown) [Triptolide behenate, triptolide behenate] the logP at 1 day [2, 8] was 2.78 ± 0.04.

Work on `CCCCCCCCCCCCCCCCCCCCCCCC(=O)O[C@@H]1[C@@]2(C(C)C)OC2[C@@H]2O[C@]23[C@]12O[C@H]2CC1C2=C(CC[C@@]13C)C(=O)OC2` (stereo partly shown) [Triptolide lignocerate, triptolide lignocerate] yielded a logP at 1 day [2, 8] of 3.12 ± 0.03.

In the case of `CCCCCCCCCCCCCCCCCC(=O)O[C@@H]1[C@@]2(C(C)C)OC2[C@@H]2O[C@]23[C@]12O[C@H]2CC1C2=C(CC[C@@]13C)C(=O)OC2` (stereo partly shown) [Triptolide stearate, triptolide stearate], the logP at 1 day [2, 8] is reported as 2.41 ± 0.04.

For `CC(C)[C@]12O[C@H]1[C@@H]1O[C@]13[C@]1(O[C@H]1C[C@H]1C4=C(CC[C@@]13C)C(=O)OC4)[C@@H]2O` [Triptolide], the “biological half-life of triptolide” value [3] is listed as 15 min, the AUC(0-inf) [4] is listed as 0.337 ng·h/mL and the Cmax [4] is listed as 0.698 ng/mL. The MRT [4] was 32.8 min, the “[formula] (half-life)” value [4] was 13.2 ± 2.4 min and the Tumor inhibition rate (tumor) was 17.67%. The Mean tumor weight [1, 7] was 0.417 ± 0.097 g, the Tumor inhibition rate [1, 7] was 40.26% and the Mean tumor weight [5] was 0.517 ± 0.097 g. The “Tumor Suppression rate” value [5] was 41.12%, the liposomal encapsulation rate [6] was “less than 50%” and the logP at 1 day [2] was 0.52 ± 0.01.
